Measurements published in the supplement of paper PMC10307832.

How the values were obtained:
Experiment in all cases: relative viability (nuclei count vs DMSO), 5 days (fraction); higher = more cells survive
Crizotinib + Dasatinib = compound: C[C@@H](Oc1cc(-c2cnn(C3CCNCC3)c2)cnc1N)c1c(Cl)ccc(F)c1Cl [Crizotinib] + Cc1nc(Nc2ncc(C(=O)Nc3c(C)cccc3Cl)s2)cc(N2CCN(CCO)CC2)n1 [Dasatinib] (partner 0.075 µM)
Outline: (§1)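 For relative viability, nuclei counts in treated wells were divided by those in vehicle wells. Lung cancer cell lines had been pin-tool dosed in 1536-well plates the day after seeding and cultured for 5 days, then fixed and stained in one step (final 0.05% Triton X-100, 1% formaldehyde, 1 ug/ml Hoechst) and imaged at 4×. Doses were one drug alone or a fixed anchor-drug dose plus five library-drug doses (not always all listed) in √10 steps, and values are duplicate-plate medians.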

Olaparib + Palbociclib = compound: O=C(c1cc(Cc2n[nH]c(=O)c3ccccc23)ccc1F)N1CCN(C(=O)C2CC2)CC1 [Olaparib] + CC(=O)c1c(C)c2cnc(Nc3ccc(N4CCNCC4)cn3)nc2n(C2CCCC2)c1=O [Palbociclib] (partner 0.5 µM)
Outline: as §1

Olaparib + Luminespib = compound: O=C(c1cc(Cc2n[nH]c(=O)c3ccccc23)ccc1F)N1CCN(C(=O)C2CC2)CC1 [Olaparib] + CCNC(=O)c1noc(-c2cc(C(C)C)c(O)cc2O)c1-c1ccc(CN2CCOCC2)cc1 [Luminespib] (partner 0.01 µM)
Outline: as §1

Olaparib + Dasatinib = compound: O=C(c1cc(Cc2n[nH]c(=O)c3ccccc23)ccc1F)N1CCN(C(=O)C2CC2)CC1 [Olaparib] + Cc1nc(Nc2ncc(C(=O)Nc3c(C)cccc3Cl)s2)cc(N2CCN(CCO)CC2)n1 [Dasatinib] (partner 0.075 µM)
Outline: as §1

Row | Cell Line | relative viability (Crizotinib + Dasatinib; first compound 0.01 µM) | relative viability (Crizotinib + Dasatinib; first compound 0.03162 µM) | relative viability (Crizotinib + Dasatinib; first compound 0.1 µM) | relative viability (Crizotinib + Dasatinib; first compound 0.3162 µM) | relative viability (Crizotinib + Dasatinib; first compound 1 µM) | relative viability (Olaparib + Palbociclib; first compound 0.08 µM) | relative viability (Olaparib + Palbociclib; first compound 0.253 µM) | relative viability (Olaparib + Palbociclib; first compound 2.53 µM) | relative viability (Olaparib + Palbociclib; first compound 8 µM) | relative viability (Olaparib + Luminespib; first compound 0.08 µM) | relative viability (Olaparib + Luminespib; first compound 0.253 µM) | relative viability (Olaparib + Luminespib; first compound 2.53 µM) | relative viability (Olaparib + Luminespib; first compound 8 µM) | relative viability (Olaparib + Dasatinib; first compound 0.08 µM) | relative viability (Olaparib + Dasatinib; first compound 0.253 µM) | relative viability (Olaparib + Dasatinib; first compound 2.53 µM) | relative viability (Olaparib + Dasatinib; first compound 8 µM)
1 | 201T | 0.599 | 0.628 | 0.614 | 0.548 | 0.569 | 0.392 | 0.323 | 0.388 | 0.337 | 1.08 | 0.959 | 1.03 | 0.972 | 0.576 | 0.558 | 0.46 | 0.501
2 | A-427 | 0.696 | 0.765 | 0.687 |  | 0.719 | 0.512 | 0.488 | 0.503 | 0.415 | 1.02 | 0.856 | 0.859 | 0.898 | 0.793 | 0.691 | 0.586 | 0.54
3 | ABC-1 |  | 0.534 | 0.54 | 0.501 | 0.616 | 0.814 |  | 0.476 | 0.862 | 0.816 |  |  | 0.354 | 0.639 | 0.609 | 0.586 | 0.676
4 | BEN | 0.295 | 0.311 | 0.27 | 0.224 | 0.312 | 0.531 | 0.454 | 0.451 | 0.51 |  | 0.308 | 0.283 | 0.31 |  | 0.32 | 0.325 | 0.35
5 | CAL-12T | 0.407 | 0.47 | 0.394 |  | 0.299 | 0.0401 | 0.407 | 0.329 | 0.479 | 0.604 | 0.376 | 0.365 | 0.355 | 0.597 | 0.281 | 0.363 | 0.283
6 | COR-L23 | 0.508 | 0.424 | 0.519 | 0.437 | 0.533 | 0.314 | 0.241 | 0.223 | 0.14 | 0.722 | 0.539 | 0.448 | 0.186 | 0.539 | 0.437 | 0.314 | 0.23
7 | COR-L 105 | 0.36 | 0.328 | 0.324 | 0.303 | 0.257 | 0.401 | 0.409 | 0.404 | 0.398 | 0.736 | 0.782 | 0.595 | 0.565 | 0.34 | 0.403 | 0.356 | 0.288
8 | ChaGo-K-1 | 0.58 | 0.573 | 0.487 | 0.424 | 0.624 | 1.03 | 0.908 | 0.908 | 0.664 | 0.596 | 0.515 | 0.411 | 0.29 | 0.576 | 0.577 | 0.567 | 0.445
9 | EKVX | 0.372 | 0.572 | 0.514 | 0.492 | 0.648 | 0.38 | 0.364 | 0.371 | 0.41 | 1.03 | 0.831 | 0.791 | 0.784 | 0.271 | 0.406 | 0.428 | 0.599
10 | EMC-BAC-2 | 0.369 | 0.313 | 0.282 | 0.363 | 0.331 | 0.518 | 0.512 | 0.517 | 0.472 | 1.12 | 1.02 | 0.955 | 0.646 | 0.365 | 0.382 | 0.471 | 0.338
11 | EPLC-272H | 0.426 | 0.382 | 0.445 | 0.366 | 0.401 | 0.427 | 0.298 | 0.339 | 0.318 | 0.291 | 0.321 | 0.254 | 0.279 | 0.43 | 0.293 | 0.414 | 0.338
12 | H3255 | 0.381 | 0.462 | 0.422 | 0.393 | 0.258 | 0.32 | 0.315 | 0.336 | 0.306 | 0.885 | 0.832 | 0.907 | 0.819 | 0.401 | 0.274 | 0.491 | 0.425
13 | HARA | 0.28 | 0.279 | 0.256 |  | 0.198 | 0.216 | 0.268 | 0.271 | 0.276 | 1.22 | 0.531 | 0.8 | 0.523 | 0.36 | 0.286 | 0.255 | 0.237
14 | HCC-15 | 0.557 | 0.573 | 0.639 |  | 0.562 | 0.785 | 0.659 | 0.714 | 0.722 | 0.462 | 0.372 | 0.346 | 0.191 | 0.659 | 0.584 | 0.655 | 0.631
15 | HCC-44 |  |  |  |  |  | 0.998 | 0.884 | 0.943 | 0.969 | 1.44 | 0.984 | 0.449 | 0.411 |  |  |  | 
16 | HCC-78 |  | 0.335 | 0.448 | 0.361 | 0.322 | 0.414 | 0.424 | 0.486 | 0.464 |  |  |  |  | 0.451 | 0.31 | 0.426 | 0.331
17 | HCC-366 | 0.592 | 0.649 | 0.618 |  | 0.458 | 0.39 | 0.263 | 0.26 | 0.168 |  |  |  |  | 0.484 | 0.503 | 0.498 | 0.253
18 | HCC-827 | 0.287 | 0.289 | 0.255 | 0.225 | 0.326 | 0.534 | 0.494 | 0.474 | 0.387 | 0.544 | 0.585 | 0.629 | 0.368 | 0.27 | 0.315 | 0.387 | 0.281
19 | HOP-62 | 0.581 | 0.637 | 0.613 | 0.663 | 0.716 | 0.469 | 0.454 | 0.361 | 0.319 | 1 | 0.809 | 0.744 | 0.476 | 0.691 | 0.563 | 0.579 | 0.492
20 | LC-2-ad | 0.46 | 0.586 | 0.595 | 0.382 | 0.453 | 0.472 | 0.451 | 0.493 | 0.399 | 1.11 | 0.865 | 0.765 | 0.811 | 0.99 | 0.454 | 0.472 | 0.491
